Our source for the IC50 and EC50 values is patent US10981932B2, “Macrocyclic indole derivatives” (Bayer Aktiengesellschaft, priority 2016, dated 2021).

Broadly, the EC50 is the concentration at which the effect is half-maximal. Low readings indicate an effect from little substance, high ones a need for much substance.

Bounds are passed on as bounds.

One test concerns the target MCL-1 (Homo sapiens, UniProt Q07820). Put plainly: Protein-protein interaction assay MCL-1/Noxa BH3 peptide (MCL-1 assay), TR-FRET. Format: binding. The following applies: MBP-MCL-1 / Noxa BH3-derived peptide, median. In short, it runs like this: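 IC50 came from a 4-parameter fit of the normalized 665/620 nm TR-FRET ratio (anti-MBP Eu-cryptate/streptavidin-XL665). Compounds (0.1 nM–20 μM, duplicates) were preincubated 10 min at 22 °C with 1 nM MBP-MCL-1 in pH 7 Tris/NaCl/KF buffer, then read after 1 h at 22 °C plus overnight at 4 °C.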
On the technique in general: In TR-FRET formats the signal depends on donor and acceptor labels being close together.

The subject of test [1] is SUDHL10. Nature of the test: Induction of cytotoxicity (CellTiter-Glo, 5 h), SUDHL10. The conditions noted are these: Homo sapiens, SU-DHL10, 5 h, read-out: Cytotox SUDHL10 [M] (median), SUDHL10 cells, cytotoxicity induction, CellTiter-Glo, 5 h, median. (In general: ATP-based viability assays read luminescence as a measure of living cells.)
The subject of another test is A2780. Put plainly: Anti-proliferative effect (CellTiter-Glo, 72 h), A2780. Format: cell-based. The following applies: Homo sapiens, A2780, 72 h, A2780 cells, median, read-out: IC50 antiproliferation assay A2780 [M] (median). In short, it runs like this: (§1)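 Cells plated and incubated with compounds for 72 h at 37 °C, with a parallel day 0 reference plate for time-zero signal. Viability read by CellTiter-Glo luminescence after 10 min, measured identically on the day 0 and 72 h plates.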

The test system of test [2] is SUDHL10. Nature of the test: Anti-proliferative effect (CellTiter-Glo, 72 h), SUDHL10. It is filed as cell-based. The following applies: Homo sapiens, SU-DHL10, 72 h, SUDHL10 cells, antiproliferation, 72 h, median, read-out: Antiproli SUDHL10 [M] (median). In short, it runs like this: as §1
Test [3] deals with SUDHL5. Nature of the test: Induction of caspase-3/7 activity (Caspase-Glo 3/7), SUDHL5. Format: cell-based. The conditions noted are these: Homo sapiens, SU-DHL-5, 3 h, caspase-3/7 induction, SUDHL5 cells, 3 h treatment; median. In a few lines:
(§2)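 DLBCL lines SUDHL5 and SUDHL10 treated with compounds for 3 h at 37 °C; caspase-3/7 activity read by Caspase-Glo 3/7 luminescence. Medium-only background subtracted; EC50 fitted with bottom fixed at 1 and top fixed at the reference compound's maximal induction.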

The test system of test [4] is SUDHL5. Put plainly: Induction of cytotoxicity (CellTiter-Glo, 5 h), SUDHL5. The conditions noted are these: Homo sapiens, SU-DHL-5, 5 h, read-out: Cytotox SUDHL5 [M] (median), SUDHL5 cells, cytotoxicity induction, CellTiter-Glo, 5 h, median.
Test [5] deals with SUDHL10. Put plainly: Induction of caspase-3/7 activity (Caspase-Glo 3/7), SUDHL10. Format: cell-based. The conditions noted are these: Homo sapiens, SU-DHL10, 3 h, caspase-3/7 induction, SUDHL10 cells, 3 h treatment; median. In short, it runs like this: as §2
Test [6] has as its system SUDHL5. Nature of the test: Anti-proliferative effect (CellTiter-Glo, 72 h), SUDHL5. It is filed as cell-based. The following applies: Homo sapiens, SU-DHL-5, 72 h, SUDHL5 cells, antiproliferation, 72 h, median, read-out: Antiproli SUDHL5 [M] (median). In short, it runs like this: as §1

MCL-1, sequence (Q07820 whole entry): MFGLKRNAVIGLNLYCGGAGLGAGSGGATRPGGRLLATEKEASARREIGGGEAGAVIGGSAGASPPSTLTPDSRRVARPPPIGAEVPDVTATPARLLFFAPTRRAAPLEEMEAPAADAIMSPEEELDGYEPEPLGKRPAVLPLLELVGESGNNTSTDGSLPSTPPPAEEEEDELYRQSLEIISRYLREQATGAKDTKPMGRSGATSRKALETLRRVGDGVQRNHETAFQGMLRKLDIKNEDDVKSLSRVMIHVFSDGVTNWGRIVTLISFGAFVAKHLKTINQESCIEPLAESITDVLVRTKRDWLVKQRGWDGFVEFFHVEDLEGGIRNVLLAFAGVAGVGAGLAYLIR

Regarding `Cn1nc(CN)c2c1COCCCCn1c(C(=O)O)c(CCCOc3cccc4ccccc34)c3cccc-2c31` (racemic) [Example 338, (rac)-3-(aminomethyl)-1-methyl-7-[3-(naphthalen-1-yloxy)propyl]-1,10,11,12,13,15-hexahydropyrazolo[4′,3′:9,10][1,6]oxazacycloundecino[8,7,6-hi]indole-8-carboxylic Acid], the IC50 against MCL-1 was 0.048 µM; in the test with SUDHL10 [1] it was over 3.3e-05 M; with A2780 it was over 3.3e-05 M; in the test with SUDHL10 [2], over 3.3e-05 M; with SUDHL5 [4] it was over 3.3e-05 M; in the test with SUDHL5 [6], over 3.3e-05 M. The EC50 in the test on SUDHL5 [3] and in the test with SUDHL10 [5] was over 33 µM in each case.
In the case of `CC(=O)NCc1nn(C)c2c1-c1cccc3c(CCCOc4cccc5ccccc45)c(C(=O)O)n(c13)CCCCOC2` (racemic) [Example 339, (rac)-3-[(acetylamino)methyl]-1-methyl-7-[3-(naphthalen-1-yloxy)propyl]-1,10,11,12,13,15-hexahydropyrazolo[4′,3′:9,10][1,6]oxazacycloundecino[8,7,6-hi]indole-8-carboxylic Acid], the IC50 on MCL-1 was 0.032 µM; in the test on SUDHL10 [1], over 3.3e-05 M; in the test with A2780, over 3.3e-05 M; with SUDHL10 [2], over 3.3e-05 M; with SUDHL5 [4], over 3.3e-05 M; with SUDHL5 [6] it was over 3.3e-05 M. For the same molecule, the EC50 with SUDHL5 [3] and in the test on SUDHL10 [5] was over 33 µM in each case.
With `CC(=O)N(C)Cc1nn(C)c2c1-c1cccc3c(CCCOc4cccc5ccccc45)c(C(=O)O)n(c13)CCCCOC2` (racemic) [Example 342, (rac)-3-{[acetyl(methyl)amino]methyl}-1-methyl-7-[3-(naphthalen-1-yloxy)propyl]-1,10,11,12,13,15-hexahydropyrazolo[4′,3′:9,10][1,6]oxazacycloundecino[8,7,6-hi]indole-8-carboxylic Acid], the IC50 at MCL-1 was 0.0451 µM; in the test on SUDHL10 [1], over 3.3e-05 M; in the test with A2780, over 3.3e-05 M; in the test on SUDHL10 [2], 1.9e-05 M; in the test with SUDHL5 [4], over 3.3e-05 M; with SUDHL5 [6], 3.15e-05 M. The EC50 in the test on SUDHL5 [3] is 25 µM; in the test with SUDHL10 [5] it was over 33 µM.
`Cn1nc(COCc2ccc(C(N)=O)cc2)c2c1COCCCCn1c(C(=O)O)c(CCCOc3cccc4ccccc34)c3cccc-2c31` (racemic) [Example 346, (rac)-3-{[(4-carbamoylbenzyl)oxy]methyl}-1-methyl-7-[3-(naphthalen-1-yloxy)propyl]-1,10,11,12,13,15-hexahydropyrazolo[4′,3′:9,10][1,6]oxazacycloundecino[8,7,6-hi]indole-8-carboxylic Acid]: the IC50 is 0.0142 µM against MCL-1; over 3.3e-05 M with SUDHL10 [1]; 2.32e-05 M in the test with A2780; 3.54e-06 M in the test on SUDHL10 [2]; 2.02e-05 M with SUDHL5 [4]; 9.09e-06 M with SUDHL5 [6]. For the same molecule, the EC50 in the test on SUDHL5 [3] amounted to 25.1 µM; with SUDHL10 [5], 32.4 µM.
Turning to `COc1ccc2c(CCCOc3cccc4ccccc34)c(C(=O)O)n3c2c1-c1c(nn(C)c1C)COCCCC3` (racemic) [Example 349, (rac)-4-methoxy-2,3-dimethyl-7-[3-(naphthalen-1-yloxy)propyl]-2,10,11,12,13,15-hexahydropyrazolo[4′,3′:9,10][1,6]oxazacycloundecino[8,7,6-hi]indole-8-carboxylic Acid], the IC50 on MCL-1 was 0.0819 µM; with SUDHL10 [1] it was over 3.3e-05 M; in the test with A2780, over 3.3e-05 M; in the test with SUDHL10 [2], 1.67e-05 M; in the test on SUDHL5 [4] it was 2.43e-05 M; with SUDHL5 [6] it was 1.86e-05 M. In addition, the EC50 was 31 µM in the test with SUDHL5 [3] and over 33 µM in the test on SUDHL10 [5].
In the case of `CN1CCN(Cc2c3c(nn2C)COCCCCn2c(C(=O)O)c(CCCOc4cccc5ccccc45)c4cccc-3c42)CC1` (racemic) [Example 359, (rac)-2-methyl-3-[(4-methylpiperazin-1-yl)methyl]-7-[3-(naphthalen-1-yloxy)propyl]-2,10,11,12,13,15-hexahydropyrazolo[4′,3′:9,10][1,6]oxazacycloundecino[8,7,6-hi]indole-8-carboxylic Acid], the IC50 at MCL-1 is 0.075 µM; in the test with SUDHL10 [1], over 3.3e-05 M; with A2780 it was over 3.3e-05 M; in the test with SUDHL10 [2], over 3.3e-05 M; with SUDHL5 [4], over 3.3e-05 M; in the test on SUDHL5 [6] it was over 3.3e-05 M. For the same molecule, the EC50 in the test with SUDHL5 [3] and in the test with SUDHL10 [5] was over 33 µM each time.
Regarding `CN1CCCn2c(C(=O)O)c(CCCOc3cccc4ccccc34)c3cccc(c32)-c2c(nn3c2OCCC3)C1` (racemic) [Example 360, (rac)-7-methyl-1-[3-(naphthalen-1-yloxy)propyl]-5,6,7,8,12,13-hexahydro-4H,11H-[1,3]oxazino[3″,2″:1′,5′]pyrazolo[3′,4′:7,8][1,5]diazecino[9,10,1-hi]indole-2-carboxylic Acid], the IC50 on MCL-1 is 0.0198 µM; in the test with SUDHL10 [1] it was over 3.3e-05 M; with A2780, over 3.3e-05 M; with SUDHL10 [2] it was 1.44e-05 M; in the test with SUDHL5 [4] it was over 3.3e-05 M; with SUDHL5 [6] it was 2.12e-05 M. Moreover, the concentration giving a half-maximal response (EC50) in the test on SUDHL5 [3] was 32.6 µM; with SUDHL10 [5] it was over 33 µM.
Turning to `CN1CCCn2c(C(=O)O)c(CCCOc3cccc4ccccc34)c3cccc(c32)-c2c(nn3c2CCCC3)C1` (racemic) [Example 361, (rac)-7-methyl-1-[3-(naphthalen-1-yloxy)propyl]-5,6,7,8,11,12,13,14-octahydro-4H-pyrido[1″,2″:1′,5′]pyrazolo[3′,4′:7,8][1,5]diazecino[9,10,1-hi]indole-2-carboxylic Acid], the IC50 on MCL-1 was 0.0248 µM; in the test on SUDHL10 [1], 1.84e-05 M; in the test on A2780, over 3.3e-05 M; in the test with SUDHL10 [2], 7.7e-06 M; with SUDHL5 [4], 1.09e-05 M; with SUDHL5 [6] it was 3.66e-06 M. For the same molecule, the concentration for a half-maximal effect (EC50) in the test on SUDHL5 [3] was 10.1 µM; with SUDHL10 [5] it was over 33 µM.
In the case of `Cc1ccc2c(C(C)CCOc3cccc4c3CCCC4)c(C(=O)O)n3c2c1-c1c(nn(C)c1C)COCCCC3` (racemic) [Example 363, 11,12,13-trimethyl-1-(4-((5,6,7,8-tetrahydronaphthalen-1-yl)oxy)butan-2-yl)-4,5,6,7,9,11-hexahydropyrazolo[4′,3′:9,10][1,6]oxaazacycloundecino[8,7,6-hi]indole-2-carboxylic Acid (Mixture of Stereoisomers)], the IC50 on MCL-1 is 0.042 µM; with SUDHL10 [1], 2.97e-05 M; in the test with A2780 it was 1.54e-05 M; with SUDHL10 [2] it was 1.13e-05 M; in the test on SUDHL5 [4] it was 1.68e-05 M; in the test with SUDHL5 [6], 1.14e-05 M. Moreover, the EC50 in the test with SUDHL5 [3] was found to be 20.2 µM; in the test with SUDHL10 [5], 23.1 µM.
